According to BindingDB's records for PubMed 34170694 (China Pharmaceutical University, 2021):

target: not listed separately; test: Activation of caspase 3 in human MDA-MB-231 cells measured after 48 hrs by Plate reader method

Going from `CC1=C(O)C(=O)C=C2C1=CC=C1[C@@]2(C)CC[C@@]2(C)[C@@H]3C[C@](C)(C(=O)OCc4ccccc4)CC[C@]3(C)CC[C@]12C` to `C#CCOC(=O)[C@]1(C)CC[C@]2(C)CC[C@]3(C)C4=CC=C5C(=CC(=O)C(OC(=O)/C=C/c6ccccc6)=C5C)[C@]4(C)CC[C@@]3(C)[C@@H]2C1`, the EC50 rises from 1.6 µM to 20.1 µM (13-fold).

`C#CCOC(=O)[C@]1(C)CC[C@]2(C)CC[C@]3(C)C4=CC=C5C(=CC(=O)C(OC(C)=O)=C5C)[C@]4(C)CC[C@@]3(C)[C@@H]2C1` and `C#CCOC(=O)[C@]1(C)CC[C@]2(C)CC[C@]3(C)C4=CC=C5C(=CC(=O)C(OC(=O)C(=C)C)=C5C)[C@]4(C)CC[C@@]3(C)[C@@H]2C1` are within 1.5-fold of each other in EC50: 19.3 µM for the first, 14.9 µM for the second.

`C#CCOC(=O)[C@]1(C)CC[C@]2(C)CC[C@]3(C)C4=CC=C5C(=CC(=O)C(OC(=O)CCC)=C5C)[C@]4(C)CC[C@@]3(C)[C@@H]2C1` and `C#CCOC(=O)[C@]1(C)CC[C@]2(C)CC[C@]3(C)C4=CC=C5C(=CC(=O)C(OC(=O)N(C)CCC)=C5C)[C@]4(C)CC[C@@]3(C)[C@@H]2C1` are within 1.5-fold of each other in EC50: 20.9 µM for the first, 20.5 µM for the second.

`C#CCOC(=O)[C@]1(C)CC[C@]2(C)CC[C@]3(C)C4=CC=C5C(=CC(=O)C(OC(=O)c6ccc(Br)cc6)=C5C)[C@]4(C)CC[C@@]3(C)[C@@H]2C1` and `C#CCOC(=O)[C@]1(C)CC[C@]2(C)CC[C@]3(C)C4=CC=C5C(=CC(=O)C(OC(=O)c6ccc(F)cc6)=C5C)[C@]4(C)CC[C@@]3(C)[C@@H]2C1` are within 1.5-fold of each other in EC50: 16.4 µM for the first, 21.2 µM for the second.

`C#CCOC(=O)[C@]1(C)CC[C@]2(C)CC[C@]3(C)C4=CC=C5C(=CC(=O)C(OC(=O)C=C)=C5C)[C@]4(C)CC[C@@]3(C)[C@@H]2C1` and `C#CCOC(=O)[C@]1(C)CC[C@]2(C)CC[C@]3(C)C4=CC=C5C(=CC(=O)C(OC(=O)/C=C/C)=C5C)[C@]4(C)CC[C@@]3(C)[C@@H]2C1` are within 1.5-fold of each other in EC50: 22.1 µM for the first, 19.7 µM for the second.

`C#CCOC(=O)[C@]1(C)CC[C@]2(C)CC[C@]3(C)C4=CC=C5C(=CC(=O)C(OC(=O)/C=C/c6ccccc6F)=C5C)[C@]4(C)CC[C@@]3(C)[C@@H]2C1` and `C#CCOC(=O)[C@]1(C)CC[C@]2(C)CC[C@]3(C)C4=CC=C5C(=CC(=O)C(OC(=O)/C=C/c6cccc(Cl)c6)=C5C)[C@]4(C)CC[C@@]3(C)[C@@H]2C1` are within 1.5-fold of each other in EC50: 14.1 µM for the first, 15.7 µM for the second.

`C#CCOC(=O)[C@]1(C)CC[C@]2(C)CC[C@]3(C)C4=CC=C5C(=CC(=O)C(OC(=O)/C=C/c6cccc(C)c6)=C5C)[C@]4(C)CC[C@@]3(C)[C@@H]2C1` and `C#CCOC(=O)[C@]1(C)CC[C@]2(C)CC[C@]3(C)C4=CC=C5C(=CC(=O)C(OC(=O)N(C)C)=C5C)[C@]4(C)CC[C@@]3(C)[C@@H]2C1` are within 1.5-fold of each other in EC50: 17.8 µM for the first, 23.9 µM for the second.

`C#CCOC(=O)[C@]1(C)CC[C@]2(C)CC[C@]3(C)C4=CC=C5C(=CC(=O)C(OC(=O)N(CC)CC)=C5C)[C@]4(C)CC[C@@]3(C)[C@@H]2C1` and `C#CCOC(=O)[C@]1(C)CC[C@]2(C)CC[C@]3(C)C4=CC=C5C(=CC(=O)C(OC(=O)N(C)CC)=C5C)[C@]4(C)CC[C@@]3(C)[C@@H]2C1` are within 1.5-fold of each other in EC50: 20.4 µM for the first, 18.7 µM for the second.

`C#CCOC(=O)[C@]1(C)CC[C@]2(C)CC[C@]3(C)C4=CC=C5C(=CC(=O)C(OC(=O)N(c6ccccc6)c6ccccc6)=C5C)[C@]4(C)CC[C@@]3(C)[C@@H]2C1` and `C#CCOC(=O)[C@]1(C)CC[C@]2(C)CC[C@]3(C)C4=CC=C5C(=CC(=O)C(OC(=O)N6c7ccccc7C=Cc7ccccc76)=C5C)[C@]4(C)CC[C@@]3(C)[C@@H]2C1` are within 1.5-fold of each other in EC50: 19.9 µM for the first, 23.1 µM for the second.

Compared with `C#CCOC(=O)[C@]1(C)CC[C@]2(C)CC[C@]3(C)C4=CC=C5C(=CC(=O)C(OC(=O)N6c7ccccc7Sc7ccccc76)=C5C)[C@]4(C)CC[C@@]3(C)[C@@H]2C1`, `C#CCOC(=O)[C@]1(C)CC[C@]2(C)CC[C@]3(C)C4=CC=C5C(=CC(=O)C(OC(=O)N6c7ccccc7CCc7ccccc76)=C5C)[C@]4(C)CC[C@@]3(C)[C@@H]2C1` is 1.9-fold lower in EC50: 18.5 µM for the first, 10 µM for the second. The second is the more potent here.

`C#CCOC(=O)[C@]1(C)CC[C@]2(C)CC[C@]3(C)C4=CC=C5C(=CC(=O)C(OC(=O)N6CCCCC6)=C5C)[C@]4(C)CC[C@@]3(C)[C@@H]2C1` and `C#CCOC(=O)[C@]1(C)CC[C@]2(C)CC[C@]3(C)C4=CC=C5C(=CC(=O)C(OC(=O)N6CCCC6)=C5C)[C@]4(C)CC[C@@]3(C)[C@@H]2C1` are within 1.5-fold of each other in EC50: 24.1 µM for the first, 24.3 µM for the second.

`C#CCOC(=O)[C@]1(C)CC[C@]2(C)CC[C@]3(C)C4=CC=C5C(=CC(=O)C(OC(=O)N6CCN(C)CC6)=C5C)[C@]4(C)CC[C@@]3(C)[C@@H]2C1` and `C#CCOC(=O)[C@]1(C)CC[C@]2(C)CC[C@]3(C)C4=CC=C5C(=CC(=O)C(OC(=O)N6CCN(c7ccccc7)CC6)=C5C)[C@]4(C)CC[C@@]3(C)[C@@H]2C1` are within 1.5-fold of each other in EC50: 20.5 µM for the first, 19.3 µM for the second.

`C#CCOC(=O)[C@]1(C)CC[C@]2(C)CC[C@]3(C)C4=CC=C5C(=CC(=O)C(OC(=O)N(CCC)CCC)=C5C)[C@]4(C)CC[C@@]3(C)[C@@H]2C1` and `C#CCOC(=O)[C@]1(C)CC[C@]2(C)CC[C@]3(C)C4=CC=C5C(=CC(=O)C(OC(=O)N(CCCC)CCCC)=C5C)[C@]4(C)CC[C@@]3(C)[C@@H]2C1` are within 1.5-fold of each other in EC50: 17.5 µM for the first, 22.3 µM for the second.

`C#CCOC(=O)[C@]1(C)CC[C@]2(C)CC[C@]3(C)C4=CC=C5C(=CC(=O)C(OC(=O)N(C)CCCC)=C5C)[C@]4(C)CC[C@@]3(C)[C@@H]2C1` and `C#CCOC(=O)[C@]1(C)CC[C@]2(C)CC[C@]3(C)C4=CC=C5C(=CC(=O)C(OC(=O)N6CCN(c7ccc(Cl)cc7)CC6)=C5C)[C@]4(C)CC[C@@]3(C)[C@@H]2C1` are within 1.5-fold of each other in EC50: 20.3 µM for the first, 20.1 µM for the second.

`C#CCOC(=O)[C@]1(C)CC[C@]2(C)CC[C@]3(C)C4=CC=C5C(=CC(=O)C(OC(=O)N6CCN(c7ccccc7Cl)CC6)=C5C)[C@]4(C)CC[C@@]3(C)[C@@H]2C1` and `C#CCOC(=O)[C@]1(C)CC[C@]2(C)CC[C@]3(C)C4=CC=C5C(=CC(=O)C(OC(=O)N6CCN(c7ccccc7OC)CC6)=C5C)[C@]4(C)CC[C@@]3(C)[C@@H]2C1` are within 1.5-fold of each other in EC50: 20.3 µM for the first, 18.2 µM for the second.

In the case of `C#CCOC(=O)[C@]1(C)CC[C@]2(C)CC[C@]3(C)C4=CC=C5C(=CC(=O)C(OC(=O)N6CCN(c7cccc(OC)c7)CC6)=C5C)[C@]4(C)CC[C@@]3(C)[C@@H]2C1`, the EC50 is reported as 19.6 µM.

target: T1, Caspase-3 (Homo sapiens, UniProt P42574); test: Activation of caspase 3 in human MDA-MB-231 cells measured after 48 hrs by Plate reader method
T1 sequence (P42574 whole entry): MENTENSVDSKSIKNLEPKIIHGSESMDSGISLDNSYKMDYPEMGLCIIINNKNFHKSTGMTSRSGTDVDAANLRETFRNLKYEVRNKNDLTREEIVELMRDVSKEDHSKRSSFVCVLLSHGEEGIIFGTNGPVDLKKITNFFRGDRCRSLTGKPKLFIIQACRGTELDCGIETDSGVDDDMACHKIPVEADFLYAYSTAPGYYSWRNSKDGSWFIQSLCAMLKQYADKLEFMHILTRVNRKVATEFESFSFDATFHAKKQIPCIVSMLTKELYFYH

Work on `C=c1c(O)c(O)cc2c1=CC=C1[C@@]2(C)CC[C@@]2(C)[C@@H]3C[C@](C)(C(=O)O)CC[C@]3(C)CC[C@]12C` yielded an EC50 of 1.4 µM.
